Among the data in PubChem BioAssay (NCI) are TGI values, retold here.

What all share (assay): NCI-60 cell line screen, 48 h
Assay [1] concerns A498 renal.
For assay [2], the system named is CCRF-CEM leukemia.
In assay [3] the test system is EKVX NSCLC.
For assay [4], the system named is HCT-15 colon.
For assay [5], the system named is HS 578T breast.
The test system of assay [6] is IGROV1 ovarian.
The test system of assay [7] is MALME-3M melanoma.
Assay [8] has as its system MDA-MB-231 breast.
The test system of assay [9] is MOLT-4 leukemia.
The test system of assay [10] is NCI-H460 lung.
In assay [11] the test system is OVCAR-4 ovarian.
Assay [12] relates to OVCAR-5 ovarian.
The test system of assay [13] is OVCAR-8 ovarian.
For assay [14], the system named is RXF 393 renal.
Assay [15] has as its system SK-MEL-28 melanoma.
Assay [16] has as its system SK-OV-3 ovarian.
Assay [17] relates to SN12C renal.
Assay [18] concerns SNB-75 CNS.
The subject of assay [19] is UO-31 renal.

Structures are written as SMILES.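 How tested: cells in 96-well plates exposed to compound for 48 hours at five concentrations. The concentration for full growth arrest is given as TGI.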

`c1ccc2c(c1)nc1n2C2CCC(C2)N1` (configuration not stated): the TGI in [1], in assay [2], in assay [3], in [4], in assay [5] and in assay [6] was more than 10 µM in each case. The TGI in assay [7], in assay [8], in assay [9], in [10], in assay [11] and in assay [12] was more than 10 µM each time. In addition, the TGI in assay [13], in assay [14], in assay [15], in assay [16], in [17] and in assay [18] was more than 10 µM throughout. The molecule also returned a TGI in assay [19] of more than 10 µM.

With `COC(C)(C)CCc1[nH]c2ccccc2c1CC(=O)NCCc1cncn1C`, the TGI in [1], in assay [2], in assay [3], in [4], in [5] and in assay [6] was more than 100 µM in each case. Further, the TGI in [7], in [8], in assay [9], in [10], in assay [11] and in assay [12] was more than 100 µM each time. Further, the TGI in assay [13], in assay [14], in [15], in assay [16], in [17] and in [18] was more than 100 µM throughout. The molecule further came in with a TGI in [19] of more than 100 µM.

With `O=C1C(=C(I)I)c2ccccc2-c2ccccc21`, the TGI in assay [1] was determined as 30.6 µM; in assay [2], 2.48 µM; in [3], 9.45 µM; in assay [4] it was 8.51 µM; in [5], 19.6 µM; in assay [6], 17.6 µM. The TGI in assay [7] was determined as 4.08 µM; in [8] it was 4.31 µM; in [9] it was 6.48 µM; in assay [10], 33.9 µM; in assay [11] it was 10.9 µM; in [12], 17.1 µM. Moreover, the TGI came to 7.72 µM in assay [13]; 3.22 µM in assay [14]; 7.94 µM in assay [15]; 28 µM in assay [16]; 4.31 µM in [17]; 12.8 µM in [18]. The TGI in [19] worked out at 4.7 µM.
